Results published in article PMC2901217, “Flavonoids activate pregnane × receptor-mediated CYP3A4 gene expression by inhibiting cyclin-dependent kinases in HepG2 liver carcinoma cells” (BMC Biochemistry, 2010).

Columns and labels:
[1] = test system: PXR-mediated CYP3A4 promoter activity in HepG2 cells stably transfected with PXR and CYP3A4-luc; assay: PXR transactivation assay (CYP3A4-luc luciferase reporter); details: 24 h; for PXR activation as % of the activity from 2 μM of rifampicin: compound below 10 μM; for Activation of PXR-mediated CYP3A4 promoter (result in words): screen hit in HepG2 PXR/CYP3A4-luc cells
Procedure: HepG2 cells (2 × 10^4/well) stably transfected with PXR and CYP3A4-luc were seeded in 384-well plates and treated with indicated compounds for 24 h before the luciferase assay. […] Compounds were tested in quadruplicate. The bars denote the standard deviation.
Compounds were added to 384-well plates seeded with cells in a phenol red-free medium containing 5% charcoal/dextran-treated FBS and incubated for 24 h at 37°C before conducting the luciferase assay. The final concentration of DMSO in each well was maintained at 0.1%. DMSO and 2 μM of rifampicin were used as the negative and positive control, respectively. Luciferase activities were detected by using EnVision plate reader (PerkinElmer Life Sciences), as previously reported.

Cdk11 = Cdk11 (Homo sapiens, UniProt Q9BWU1); assay: Cdk kinase profiling assay (Ambit Biosciences); assay type: binding
Procedure: (§1) Since flavonoids have been reported to inhibit multiple Cdks, we investigated the inhibitory effect of flavonoid apigenin on various Cdks. Apigenin inhibited multiple Cdks, including Cdk2, 4, 5, 7, 8, 9 and 11 (Table 1). […] GST was expressed and purified by using pGEX-4T-1 in Escherichia coli BL21 and was used as the negative control. The reaction mixture was incubated at 30°C for 30 min before being electrophoresed by SDS-PAGE. The gel was stained by using SimplyBlue SafeStain (Invitrogen), desiccated by the Labconco gel dryer (Labconco, Kansas City, MO), and exposed overnight to the Storage Phosphor Screen (GE Healthcare). Phosphoimages were obtained by using the Storm scanner (GE Healthcare). In vitro Cdks kinase profiling assays were performed by Ambit Biosciences (San Diego, CA) as previously described.

Cdk2 = Cdk2 (Homo sapiens, UniProt P24941); assay: Cdk kinase profiling assay (Ambit Biosciences); assay type: binding
Procedure: as §1

Cdk3 = Cdk3 (Homo sapiens, UniProt Q00526); assay: Cdk kinase profiling assay (Ambit Biosciences); assay type: binding
Procedure: as §1

Cdk4 = Cdk4 (Homo sapiens, UniProt P11802); assay: Cdk kinase profiling assay (Ambit Biosciences); assay type: binding
Procedure: as §1

Cdk5 = Cdk5 (Homo sapiens, UniProt Q00535); assay: Cdk kinase profiling assay (Ambit Biosciences); assay type: binding
Procedure: as §1

Cdk7 = Cdk7 (Homo sapiens, UniProt P50613); assay: Cdk kinase profiling assay (Ambit Biosciences); assay type: binding
Procedure: as §1

Cdk8 = Cdk8 (Homo sapiens, UniProt P49336); assay: Cdk kinase profiling assay (Ambit Biosciences); assay type: binding
Procedure: as §1

Cdk9 = Cdk9 (Homo sapiens, UniProt P50750); assay: Cdk kinase profiling assay (Ambit Biosciences); assay type: binding
Procedure: as §1

[2] = test system: Cdk5-mediated inhibition of PXR-mediated CYP3A4 promoter activity in HepG2; assay: Cdk5-mediated inhibition of rifampicin-induced CYP3A4 promoter activity (transient co-transfection, Dual-glo luciferase); assay type: cell-based, human; details: p < 0.001
Procedure: Next, we determined the functional correlation between the activities of Cdk5 and PXR. […] A total of 20 μg of combined plasmids was used to transfect 5 × 10^6 cells seeded in a T75 flask 16 h before transfection. Transfected cells were seeded into white 96-well plates (at 10,000 cells/well) 24 h later, and treated with DMSO or compounds as indicated for 24 h before Dual-glo luciferase assay. CYP3A4 promoter activity was normalized by using activity of the CMV-renilla, and expressed as fold induction over control (DMSO; without Cdk5 transfection). […] The significance of the difference between datasets was determined by using the Student's t test.

[3] = target: T1, GST-hPXR ligand-binding domain (Homo sapiens, UniProt O75469)
T1 sequence (O75469 146-433 limits assumed): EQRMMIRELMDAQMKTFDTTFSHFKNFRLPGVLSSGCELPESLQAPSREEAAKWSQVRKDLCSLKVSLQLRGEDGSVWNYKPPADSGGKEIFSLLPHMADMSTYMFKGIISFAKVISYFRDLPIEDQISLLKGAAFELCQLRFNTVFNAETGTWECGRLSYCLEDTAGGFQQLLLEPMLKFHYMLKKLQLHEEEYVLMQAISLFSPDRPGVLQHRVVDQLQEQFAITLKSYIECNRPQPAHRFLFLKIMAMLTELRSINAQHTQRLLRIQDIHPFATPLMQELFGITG
Procedure: The time-resolved fluorescence resonance transfer (TR-FRET) PXR competitive binding assay was performed as described previously [9]. Briefly, the assays were performed in a volume of 20 μl in 384-well solid black plates with 5 nM GST-hPXR ligand-binding domain, 40 nM fluorescent-labeled hPXR agonist (Fluomore PXR Green), 5 nM terbium-labeled anti-GST antibody, and test compound at different concentrations. […] Curves were generated by using GraphPad Prism 4.0 (GraphPad Software, La Jolla, CA).

Sequence of Cdk4 (P11802 whole entry): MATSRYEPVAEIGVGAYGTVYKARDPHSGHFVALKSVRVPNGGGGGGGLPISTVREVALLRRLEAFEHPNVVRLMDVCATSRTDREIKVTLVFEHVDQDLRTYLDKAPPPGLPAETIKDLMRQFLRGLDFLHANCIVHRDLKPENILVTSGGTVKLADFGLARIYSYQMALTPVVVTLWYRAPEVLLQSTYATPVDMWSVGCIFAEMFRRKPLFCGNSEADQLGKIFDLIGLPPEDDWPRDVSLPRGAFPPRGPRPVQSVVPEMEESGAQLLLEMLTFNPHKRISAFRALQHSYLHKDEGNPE
Sequence of Cdk9 (P50750 whole entry): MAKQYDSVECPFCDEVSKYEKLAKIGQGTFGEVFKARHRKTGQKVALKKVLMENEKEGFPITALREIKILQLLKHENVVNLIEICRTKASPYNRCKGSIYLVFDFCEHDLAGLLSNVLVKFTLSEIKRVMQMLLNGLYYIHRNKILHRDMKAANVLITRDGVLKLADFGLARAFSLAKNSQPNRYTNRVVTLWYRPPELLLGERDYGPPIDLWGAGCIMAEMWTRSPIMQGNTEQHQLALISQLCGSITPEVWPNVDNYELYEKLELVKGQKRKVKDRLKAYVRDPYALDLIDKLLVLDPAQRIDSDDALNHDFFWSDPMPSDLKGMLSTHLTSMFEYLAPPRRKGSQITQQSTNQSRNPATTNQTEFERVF
Sequence of Cdk7 (P50613 whole entry): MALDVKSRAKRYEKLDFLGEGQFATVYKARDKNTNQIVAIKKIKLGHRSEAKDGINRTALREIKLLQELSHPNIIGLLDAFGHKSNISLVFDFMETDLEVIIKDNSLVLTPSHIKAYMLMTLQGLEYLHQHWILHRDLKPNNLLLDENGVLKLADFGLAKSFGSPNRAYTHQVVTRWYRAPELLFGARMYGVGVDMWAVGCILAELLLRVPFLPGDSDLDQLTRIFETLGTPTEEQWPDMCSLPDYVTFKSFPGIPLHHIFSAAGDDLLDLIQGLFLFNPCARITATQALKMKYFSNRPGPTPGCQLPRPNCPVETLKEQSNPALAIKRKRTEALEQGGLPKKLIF
Sequence of Cdk8 (P49336 whole entry): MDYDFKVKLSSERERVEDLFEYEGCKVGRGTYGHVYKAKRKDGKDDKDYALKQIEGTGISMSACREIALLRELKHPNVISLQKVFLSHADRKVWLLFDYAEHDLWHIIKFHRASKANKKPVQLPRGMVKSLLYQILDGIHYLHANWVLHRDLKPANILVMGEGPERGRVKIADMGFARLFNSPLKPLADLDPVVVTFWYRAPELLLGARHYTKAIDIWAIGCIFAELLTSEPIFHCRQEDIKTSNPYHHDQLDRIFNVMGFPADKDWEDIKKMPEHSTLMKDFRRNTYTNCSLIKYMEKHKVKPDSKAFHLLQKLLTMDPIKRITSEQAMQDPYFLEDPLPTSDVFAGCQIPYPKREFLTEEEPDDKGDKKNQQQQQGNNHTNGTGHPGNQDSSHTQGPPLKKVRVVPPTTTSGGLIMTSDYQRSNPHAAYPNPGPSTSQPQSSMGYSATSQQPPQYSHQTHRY
Sequence of Cdk5 (Q00535 whole entry): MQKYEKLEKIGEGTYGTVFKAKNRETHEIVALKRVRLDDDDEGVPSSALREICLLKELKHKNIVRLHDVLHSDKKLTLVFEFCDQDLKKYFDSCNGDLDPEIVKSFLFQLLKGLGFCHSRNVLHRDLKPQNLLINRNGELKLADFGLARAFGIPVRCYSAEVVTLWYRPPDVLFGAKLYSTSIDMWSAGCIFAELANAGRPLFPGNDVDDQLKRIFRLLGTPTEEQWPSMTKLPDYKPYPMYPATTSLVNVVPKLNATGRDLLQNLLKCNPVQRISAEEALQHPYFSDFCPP
Sequence of Cdk3 (Q00526 whole entry): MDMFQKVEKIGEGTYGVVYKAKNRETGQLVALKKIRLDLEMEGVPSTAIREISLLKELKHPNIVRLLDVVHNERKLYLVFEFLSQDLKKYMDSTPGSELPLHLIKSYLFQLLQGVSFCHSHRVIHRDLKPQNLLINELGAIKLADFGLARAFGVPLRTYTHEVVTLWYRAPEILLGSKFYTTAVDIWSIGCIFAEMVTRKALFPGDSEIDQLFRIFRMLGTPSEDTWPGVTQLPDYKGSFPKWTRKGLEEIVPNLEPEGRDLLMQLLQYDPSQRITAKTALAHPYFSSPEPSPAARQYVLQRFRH
Sequence of Cdk11 (Q9BWU1 whole entry): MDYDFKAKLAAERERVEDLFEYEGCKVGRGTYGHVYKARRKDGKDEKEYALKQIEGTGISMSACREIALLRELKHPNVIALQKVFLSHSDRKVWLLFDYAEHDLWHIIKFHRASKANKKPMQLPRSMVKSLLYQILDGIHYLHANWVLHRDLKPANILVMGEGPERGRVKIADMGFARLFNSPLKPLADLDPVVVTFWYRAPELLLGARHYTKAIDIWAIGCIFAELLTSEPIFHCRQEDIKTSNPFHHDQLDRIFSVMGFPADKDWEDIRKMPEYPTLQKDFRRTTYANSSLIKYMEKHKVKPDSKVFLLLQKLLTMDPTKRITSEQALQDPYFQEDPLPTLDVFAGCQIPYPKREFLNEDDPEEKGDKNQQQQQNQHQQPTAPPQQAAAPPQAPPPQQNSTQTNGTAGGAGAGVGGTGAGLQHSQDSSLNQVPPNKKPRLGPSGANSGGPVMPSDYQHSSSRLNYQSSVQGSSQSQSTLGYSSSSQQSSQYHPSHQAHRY

SMILES: O=c1cc(-c2ccc(O)cc2)oc2cc(O)cc(O)c12 [apigenin]
- PXR activation as % of the activity from 2 μM of rifampicin [1]: more than 50%
- Activation of PXR-mediated CYP3A4 promoter (result in words) [1]: potent activators
- Kd (Cdk11): 3 µM
- Kd (Cdk2): 9.8 µM
- Kd (Cdk3): > 30 µM
- Kd (Cdk4): 7 µM
- Kd (Cdk5): 3.9 µM
- Kd (Cdk7): 1700 nM
- Kd (Cdk8): 5.8 µM
- Kd (Cdk9): 2000 nM

SMILES: COc1ccc(-c2coc3cc(O)cc(O)c3c2=O)cc1 [biochanin A]
- Activation of PXR-mediated CYP3A4 promoter (result in words) [1]: potent activators

SMILES: CCCC[C@@H](C=O)NC(=O)[C@H](CC(C)C)NC(=O)OCc1ccccc1 [calpeptin, reference compound]
- Concentration as potent as 2 μM of rifampicin in inducing PXR activity ([1]; HepG2 PXR/CYP3A4-luc): 4.4 µM
- Effect on inhibitory effect of Cdk5 on CYP3A4 promoter activity (result in words) [2]: decreased the inhibitory effect of Cdk5

SMILES: O=c1cc(-c2ccccc2)oc2cc(O)cc(O)c12 [chrysin]
- Activation of PXR-mediated CYP3A4 promoter (result in words) [1]: potent activators
- Binding to PXR (result in words) [3]: did not bind

SMILES: O=c1c(-c2ccc(O)cc2)coc2cc(O)ccc12 [daidzein]
- Activation of PXR-mediated CYP3A4 promoter (result in words) [1]: potent activators

SMILES: O=c1c(-c2ccc(O)cc2)coc2cc(O)cc(O)c12 [genistein]
- Activation of PXR-mediated CYP3A4 promoter (result in words) [1]: potent activators

SMILES: O=c1cc(-c2ccc(O)c(O)c2)oc2cc(O)cc(O)c12 [luteolin]
- PXR activation, times more effective than 2 μM rifampicin ([1]; compound at 40 μM, versus 2 μM rifampicin): 7 times
- PXR activation as % of the activity from 2 μM of rifampicin [1]: more than 50%
- Activation of PXR-mediated CYP3A4 promoter (result in words) [1]: potent activators

SMILES: COc1cc(O)c2c(=O)c(-c3ccc(O)cc3)coc2c1 [prunetin]
- Activation of PXR-mediated CYP3A4 promoter (result in words) [1]: potent activators
